The text below walks through data of article PMC9253268 (Frontiers in Immunology, 2022).

Experiment [1] concerns AIA-M rat model. Kind of experiment: Histology of knee joints of AIA-M rats (H&E, safranin O fast green, Masson trichrome). The settings on record: all p < 0.05. Type of experiment: in vivo. The protocol: The viscera indexes were calculated by the weight of the thymus, spleen, liver, and kidney relative to total […]. Histological changes were examined using hematoxylin and eosin (H&E), safranin O-fast green (Solarbio, Beijing, China), and Masson trichrome staining (Baso, Wuhan, China) according to routine protocols. Please see detailed information on the protocol in Supplementary Materials Section 5 . […]
after BHGZD administration (5), respectively.
The rats were acclimatized to an apparatus consisting of individual perspex boxes. With the aid of syringe (1mL), 500μL acetone was sprayed gently from a short distance to the middle of the plantar surface of hind paw. […] The amount of time that rats were licking and/or shaking the hind paw was recorded during 5min after acetone application and was used as an index of nocifensive response for cold hypersensitivity (6). The licking and/or shaking time was measured at 0, 5, 10, 15, 25th day after BHGZD administration, […]
For thermal-induced hyperalgesia, the rats were placed for 30minin an apparatus consisting of individual perspex boxes with Hargreaves radiant heat apparatus (Ugo Basile Srl, Comerio VA, Italy) and an infrared radiant heat (40W) source was directed to middle part of the plantar surface of the hind paw. […] The paw withdrawal latency was measured at 0, 5, 10, 15, 25th day after BHGZD administration, respectively. […]

The subject of experiment [2] is NLRP3 inflammasome-induced pyroptosis. Kind of experiment: NLRP3 inflammasome-induced pyroptosis markers in AIA-M rats (TUNEL, IHC, Western blotting, ELISA). Type of experiment: in vivo, rat. As to conditions: all p < 0.05. Here is the method: The occurrence of pyroptosis in both MH7A cells and synovium tissues in AIA-M rats was determined by in situ TUNEL staining (TUNEL Andy Fluor™ 594 Apoptosis Detection Kit, ABP Biosciences, Wuhan, China) in accordance with the manufacturer’s protocol. Fluorescence images were visualized and photographed with inverted fluorescence microscopes (MF53, MSHOT, Guangzhou, China; Olympus, BX51, Tokyo, Japan). Detailed information on TUNEL assay is provided in Supplementary Materials Section 18 .
To detect the expression levels of NLPR3/ASC of the knee joints in AIA-M rats and corresponding treatment groups, immunohistochemical staining was carried out using a DAB kit (Cat No. AR1027, Boster Biological Technology Co., Ltd., Wuhan, China) and a rabbit/mouse two-step detection kit (Cat No. SV0002/SV0001, Boster Biological Technology Co., Ltd., Wuhan, China) according to the routine protocols. Immunohistochemistry quantification was performed using ImageJ (Image Progressing and Analysis in Java, version 1.42q, https://imagej.nih.gov/ij/), following the ImageJ User Guide. […]
Cell apoptosis was determined by in situ terminal deoxynucleotidyl transferase-mediated dUTP-biotin nick end-labeling reaction (TUNEL) staining (TUNEL Andy Fluor™ 594 Apoptosis Detection Kit, ABP Biosciences, Wuhan, China) in accordance with the […]

Molecules are shown by their SMILES.

Regarding `CN(Cc1cnc2nc(N)nc(N)c2n1)c1ccc(C(=O)N[C@@H](CCC(=O)O)C(=O)O)cc1` [MTX, methotrexate], in experiment [1], the “histopathological changes of knee joints (inflammatory cell infiltration, cartilage and bone destruction, synovial hyperplasia)” value is listed as “apparently reversed”. In experiment [2], the “activities of GSDMD-NT in sera and its levels in knee joints” value is recorded as “reduced”; the “activity of LDH in the sera” value is “significantly decreased”.
